Patent US20230077362A1 (CORTEVA AGRISCIENCE LLC, priority 2019, published 2023)
Read-outs that look alike come from different tables or passages of the source.

Assays:
[1] = system: Beet Armyworm (Spodoptera exigua) ("BAW"), second instar larvae; experiment: Bioassay on beet armyworm (BAW), 128-well diet tray assay; format: in vivo; conditions: for pest or weed control at 50 µg/cm2: Spodoptera exigua; for BAW rating: Table ABC, species BAW, C = not tested, D = no activity noticed
Description: (§1) Certain molecules disclosed in this document were tested against BAW and CL using procedures described in the following examples. In the reporting of the results, the “BAW & CL Rating Table” was used (See Table Section).
(§2) Trays were covered with a clear self-adhesive cover and held at 25° C., 14:10 light-dark cycle for five to seven days. Percent mortality was recorded for the larvae in each well; activity in the eight wells was then averaged. The results are indicated in the table entitled “Table ABC: Biological Results” (See Table Section).

[2] = system: Cabbage Looper (Trichoplusia ni) ("CL"), second instar larvae; experiment: Bioassay on cabbage looper (CL), 128-well diet tray assay; format: in vivo; conditions: for pest or weed control at 50 µg/cm2: Trichoplusia ni; for CL rating: Table ABC, species CL, C = not tested, D = no activity noticed
Description: as §1, §2

[3] = read-out: BAW (Biological Results, rating)
[4] = read-out: CL (Biological Results, rating)

Row | Structure (SMILES) | pest or weed control at 50 µg/cm2 [1, 3] | pest or weed control at 50 µg/cm2 ([1]; read-out: BAW rating) | pest or weed control at 50 µg/cm2 ([2]; read-out: CL rating) | further results
1 | COc1ccc(C(C)C)c(N2C(=O)CS/C2=N\C(=O)Nc2ccc(-c3ncn(-c4ccc(OC(F)(F)F)cc4)n3)cc2Cl)c1 [Compound J37, (Z)-1-(2-Chloro-4-(1-(4-(trifluoromethoxy)phenyl)-1H-1,2,4-triazol-3-yl)phenyl)-3-(3-(2-isopropyl-5-methoxyphenyl)-4-oxothiazolidin-2-ylidene)urea] | 50 to 100% | – | – | pest or weed control at 50 µg/cm2 [2, 4]: 50 to 100%
2 | CC(C)c1cc(F)c(N(C)C)cc1N1C(=O)CS/C1=N\C(=O)Nc1ccc(-c2nnc(-c3ccc(OC(F)(F)F)cc3)s2)cc1F [Compound J507, (Z)-1-(3-(5-(Dimethylamino)-4-fluoro-2-isopropylphenyl)-4-oxothiazolidin-2-ylidene)-3-(2-fluoro-4-(5-(4-(trifluoromethoxy)phenyl)-1,3,4-thiadiazol-2-yl)phenyl)urea] | – | 50 to 100% | 50 to 100% | –
3 | CC(C)c1ccc(N(C)C)cc1N1C(=O)CS/C1=N\C(=O)Nc1ccc(-c2ncn(-c3ccc(OC(F)(F)F)cc3)n2)cc1C(F)F [Compound J213, (Z)-1-(2-(Difluoromethyl)-4-(1-(4-(trifluoromethoxy)phenyl)-1H-1,2,4-triazol-3-yl)phenyl)-3-(3-(5-(dimethylamino)-2-isopropylphenyl)-4-oxothiazolidin-2-ylidene)urea] | 50 to 100% | – | – | pest or weed control at 50 µg/cm2 [2, 4]: 50 to 100%
4 | CCN(CC)c1ccc(C(C)C)c(N2C(=O)CS/C2=N\C(=O)Nc2ccc(-c3ncn(-c4ccc(OC(F)(F)F)cc4)n3)cc2F)c1 [Compound J69, (Z)-1-(3-(5-(diethylamino)-2-isopropylphenyl)-4-oxothiazolidin-2-ylidene)-3-(2-fluoro-4-(1-(4-(trifluoromethoxy)phenyl)-1H-1,2,4-triazol-3-yl)phenyl)urea] | 50 to 100% | – | – | pest or weed control at 50 µg/cm2 [2, 4]: 50 to 100%
5 | Cc1ccc(COCC(F)(F)F)c(N2C(=O)CS/C2=N\C(=O)Nc2ccc(-c3cn(-c4ccc(C(F)(F)F)cn4)cn3)cc2)c1 [Compound J521, (Z)-1-(3-(5-Methyl-2-((2,2,2-trifluoroethoxy)methyl)phenyl)-4-oxothiazolidin-2-ylidene)-3-(4-(1-(5-(trifluoromethyl)pyridin-2-yl)-1H-imidazol-4-yl)phenyl)urea] | – | 50 to 100% | 50 to 100% | –
6 | Cc1ccc(OCC(F)(F)F)c(N2C(=O)CS/C2=N\C(=O)Nc2ccc(-c3cn(-c4ccc(S(F)(F)(F)(F)F)cc4)cn3)cc2F)c1 [Compound J596, (Z)-1-(2-Fluoro-4-(1-(4-(pentafluoro-λ^6-sulfaneyl)phenyl)-1H-imidazol-4-yl)phenyl)-3-(3-(5-methyl-2-(2,2,2-trifluoroethoxy)phenyl)-4-oxothiazolidin-2-ylidene)urea] | – | 50 to 100% | 50 to 100% | –
7 | Cc1ccc(COCC(F)(F)F)c(N2C(=O)CS/C2=N\C(=O)Nc2ccc(-c3ncn(-c4cc(C(F)(F)F)cc(C(F)(F)F)c4)n3)cc2F)c1 [Compound J760, (Z)-1-(4-(1-(3,5-Bis(trifluoromethyl)phenyl)-1H-1,2,4-triazol-3-yl)-2-fluorophenyl)-3-(3-(5-methyl-2-((2,2,2-trifluoroethoxy)methyl)phenyl)-4-oxothiazolidin-2-ylidene)urea] | – | 50 to 100% | 0 to 50% | –
8 | CCCc1ccc(C)cc1N1C(=O)CS/C1=N\C(=O)Nc1ccc(-c2ncn(-c3ccc(C(F)(F)F)cn3)n2)cc1F [Compound J454] | – | – | – | BAW rating [1]: A (50-100); CL rating [2]: A (50-100)
9 | COc1ccc(C(C)C)c(N2C(=O)CS/C2=N\C(=O)Nc2ccc(-c3ncn(-c4ccc(C(F)(F)F)cc4)n3)cc2C)c1 [Compound J8, (Z)-1-(3-(2-Isopropyl-5-methoxyphenyl)-4-oxothiazolidin-2-ylidene)-3-(2-methyl-4-(1-(4-(trifluoromethyl)phenyl)-1H-1,2,4-triazol-3-yl)phenyl)urea] | 50 to 100% | – | – | pest or weed control at 50 µg/cm2 [2, 4]: 50 to 100%
10 | COc1ccc(C(C)C)c(N2C(=O)CS/C2=N\C(=O)Nc2ccc(-c3ncn(-c4ccc(OC(F)(F)C(F)(F)F)cc4)n3)cc2C)c1 [Compound J25, (Z)-1-(3-(2-Isopropyl-5-methoxyphenyl)-4-oxothiazolidin-2-ylidene)-3-(2-methyl-4-(1-(4-(perfluoroethoxy)phenyl)-1H-1,2,4-triazol-3-yl)phenyl)urea] | 50 to 100% | – | – | pest or weed control at 50 µg/cm2 [2, 4]: 50 to 100%
11 | Cc1ccc(COCC(F)(F)F)c(N2C(=O)CS/C2=N\C(=O)Nc2ccc(-c3ccn(-c4ccc(C(F)(F)F)nn4)n3)cc2F)c1 [Compound J390] | – | – | – | BAW rating [1]: A (50-100); CL rating [2]: A (50-100)
12 | COc1ccc(C(C)C)c(N2C(=O)CS/C2=N\C(=O)Nc2ccc(-c3ncn(-c4ccc(OC(F)(F)F)cc4)n3)cc2OC)c1 [Compound J6, (Z)-1-(3-(2-Isopropyl-5-methoxyphenyl)-4-oxothiazolidin-2-ylidene)-3-(2-methoxy-4-(1-(4-(trifluoromethoxy)phenyl)-1H-1,2,4-triazol-3-yl)phenyl)urea] | 50 to 100% | – | – | pest or weed control at 50 µg/cm2 [2, 4]: 50 to 100%
13 | COCc1ccc(N(C)C)cc1N1C(=O)CS/C1=N\C(=O)Nc1ccc(-c2noc(-c3ccc(OC(F)(F)F)cc3)n2)cc1F [Compound J773, (Z)-1-(3-(5-(Dimethylamino)-2-(methoxymethyl)phenyl)-4-oxothiazolidin-2-ylidene)-3-(2-fluoro-4-(5-(4-(trifluoromethoxy)phenyl)-1,2,4-oxadiazol-3-yl)phenyl)urea] | – | 50 to 100% | 50 to 100% | –
14 | CCOCc1ccc(C)cc1N1C(=O)CS/C1=N\C(=O)Nc1ccc(-c2nnc(-c3ccc(OC(F)(F)F)cc3)s2)cc1F [Compound J503, (Z)-1-(3-(2-(Ethoxymethyl)-5-methylphenyl)-4-oxothiazolidin-2-ylidene)-3-(2-fluoro-4-(5-(4-(trifluoromethoxy)phenyl)-1,3,4-thiadiazol-2-yl)phenyl)urea] | – | – | 50 to 100% | –
15 | Cc1ccc(OCCC(F)(F)F)c(N2C(=O)CS/C2=N\C(=O)Nc2ccc(-c3nnc(-c4ccc(OC(F)(F)F)cc4)s3)cc2F)c1 [Compound J501, (Z)-1-(2-Fluoro-4-(5-(4-(trifluoromethoxy)phenyl)-1,3,4-thiadiazol-2-yl)phenyl)-3-(3-(5-methyl-2-(3,3,3-trifluoropropoxy)phenyl)-4-oxothiazolidin-2-ylidene)urea] | – | 50 to 100% | – | –
16 | Cc1ccc(OCC(F)(F)F)c(N2C(=O)CS/C2=N\C(=O)Nc2ccc(-c3ncn(-c4ccc(OC(F)(F)F)cc4)n3)cc2O)c1 [Compound J176, (Z)-1-(2-Hydroxy-4-(1-(4-(trifluoromethoxy)phenyl)-1H-1,2,4-triazol-3-yl)phenyl)-3-(3-(5-methyl-2-(2,2,2-trifluoroethoxy)phenyl)-4-oxothiazolidin-2-ylidene)urea] | 0 to 50% | – | – | –
17 | O=C(/N=C1\SCC(=O)N1c1cccc(-c2ccccc2)c1)Nc1ccc(-c2ncn(-c3ccc(OC(F)(F)F)cc3)n2)cc1F [Compound J715, (Z)-1-(3-([1,1′-Biphenyl]-3-yl)-4-oxothiazolidin-2-ylidene)-3-(2-fluoro-4-(1-(4-(trifluoromethoxy)phenyl)-1H-1,2,4-triazol-3-yl)phenyl)urea] | – | 0 to 50% | – | –
18 | Cc1ccc(OCCC(F)(F)F)c(N2C(=O)CS/C2=N\C(=O)Nc2ccc(-c3cn(-c4ccc(OC(F)(F)F)cc4)nn3)cc2)c1 [Compound J491, (Z)-1-(3-(5-Methyl-2-(3,3,3-trifluoropropoxy)phenyl)-4-oxothiazolidin-2-ylidene)-3-(4-(1-(4-(trifluoromethoxy)phenyl)-1H-1,2,3-triazol-4-yl)phenyl)urea] | – | 50 to 100% | – | –
19 | CN(C)c1ccc(C(F)(F)F)c(N2C(=O)CS/C2=N\C(=O)Nc2ccc(-c3cn(-c4ccc(OC(F)(F)F)cc4)nn3)cc2)c1 [Compound J495, (Z)-1-(3-(5-(Dimethylamino)-2-(trifluoromethyl)phenyl)-4-oxothiazolidin-2-ylidene)-3-(4-(1-(4-(trifluoromethoxy)phenyl)-1H-1,2,3-triazol-4-yl)phenyl)urea] | – | 0 to 50% | – | –
20 | CC(=O)c1cc(-c2ncn(-c3ccc(C(F)(F)F)cn3)n2)ccc1NC(=O)/N=C1\SCC(=O)N1c1cc(C)ccc1COCC(F)(F)F [Compound J418, (Z)-1-(2-Acetyl-4-(1-(5-(trifluoromethyl)pyridin-2-yl)-1H-1,2,4-triazol-3-yl)phenyl)-3-(3-(5-methyl-2-((2,2,2-trifluoroethoxy)methyl)phenyl)-4-oxothiazolidin-2-ylidene)urea] | – | 0 to 50% | – | –
21 | COC(c1ccc(C)cc1N1C(=O)CS/C1=N\C(=O)Nc1ccc(-c2nnc(-c3ccc(OC(F)(F)F)cc3)s2)cc1F)C(F)(F)F (centres unmarked) [Compound J505, (Z)-1-(2-Fluoro-4-(5-(4-(trifluoromethoxy)phenyl)-1,3,4-thiadiazol-2-yl)phenyl)-3-(3-(5-methyl-2-(2,2,2-trifluoro-1-methoxyethyl)phenyl)-4-oxothiazolidin-2-ylidene)urea] | – | – | 50 to 100% | –
22 | COC(C)c1ccc(C)cc1N1C(=O)CS/C1=N\C(=O)Nc1ccc(-c2ncn(-c3ccc(C(F)(F)F)cn3)n2)cc1C(C)=O (centres unmarked) [Compound J416, (Z)-1-(2-Acetyl-4-(1-(5-(trifluoromethyl)pyridin-2-yl)-1H-1,2,4-triazol-3-yl)phenyl)-3-(3-(2-(1-methoxyethyl)-5-methylphenyl)-4-oxothiazolidin-2-ylidene)urea] | – | – | 50 to 100% | –
